Measurements published in US20030186898A1, “8- (C-beta-D-glucopyranosyl) -7, 3', 4' -trihydroxyflavone, process of isolation thereof, pharmaceutical composition and method for the treatment of diabetes” (priority 2002, published 2003).

Tested on: 18 h. fasted Wistar rats
Assay: hypoglycaemic activity in 18 h. fasted Wistar rats
Assay type: in vivo
Method: The compound 8-(C-β-D-glucopyranosyl)-7,3′,4′-trihydroxyflavone has been evaluated for hypoglycaemic activity in 18 h. fasted Wistar rats. […] The mean fall recorded was 24 mg/100 ml. blood, from initial mean of 92 to mean of 68 mg/100 ml. blood.

Compound: O=c1cc(-c2ccc(O)c(O)c2)oc2c([C@@H]3O[C@H](CO)[C@@H](O)[C@H](O)[C@H]3O)c(O)ccc12 [8-(C-β-D-glucopyranosyl)-7,3′,4′-trihydroxyflavone]
- hypoglycaemic effect (10 mg/kg p. o.): hypoglycaemic effect was recorded in all the treated rats
- mean (blood sugar) after treatment (after 10 mg/kg p. o.): 68 mg/100 ml. blood
- initial mean (blood sugar) (before treatment with 10 mg/kg p. o.): 92 mg/100 ml. blood
- mean fall (blood sugar) (compound at 10 mg/kg p. o.): 24 mg/100 ml. blood
